These results are taken from patent US12552787B2, “Quinazoline compound” (MEDSHINE DISCOVERY INC., priority 2020, dated 2026).

Where two headings read alike, the source gives them in different places.

The target in series [1] is T1, KRAS(G12C) and SOS1 binding (Homo sapiens, UniProt Q07889).
T1 sequence (Q07889 564-1049): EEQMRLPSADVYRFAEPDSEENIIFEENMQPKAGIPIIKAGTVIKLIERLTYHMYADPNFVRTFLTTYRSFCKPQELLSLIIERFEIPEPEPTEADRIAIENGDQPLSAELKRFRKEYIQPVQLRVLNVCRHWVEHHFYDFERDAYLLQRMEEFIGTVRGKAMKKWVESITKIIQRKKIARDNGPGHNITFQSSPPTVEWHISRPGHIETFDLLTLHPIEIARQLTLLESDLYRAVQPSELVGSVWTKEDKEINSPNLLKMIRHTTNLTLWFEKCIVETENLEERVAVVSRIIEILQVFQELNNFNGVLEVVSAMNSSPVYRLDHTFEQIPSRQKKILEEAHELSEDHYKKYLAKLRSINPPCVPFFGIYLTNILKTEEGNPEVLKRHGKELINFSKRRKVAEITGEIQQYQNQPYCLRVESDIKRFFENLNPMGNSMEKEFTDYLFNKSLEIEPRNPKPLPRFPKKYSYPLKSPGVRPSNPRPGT
Nature of the series: KRAS (G12C) and SOS1 binding assay (HTRF). The conditions noted are these: 25° C., 60 minutes, read-out: IC50, inhibitory activity on KRAS(G12C) and SOS1 binding. Here is the method: (§1) 1. Experimental Materials:
Multifunctional microplate reader Nivo5 was purchased from PerkinElmer.
2. Preparation of 1× Buffer:
The buffer for this experiment was the current preparation.
Preparation method: 4-Hydroxyethylpiperazineethanesulfonic acid (Hepes): 5 mM; sodium chloride (NaCl): 150 mM; ethylenediaminetetraacetic acid (EDTA): 10 mM; CO-630 (Igepal): 0.0025%; potassium fluoride (KF): 100 mM; dithiothreitol (DTT): 1 mM; bovine serum albumin (BSA): 0.05%.
• 1) The compounds to be tested were diluted 5-fold with DMSO to the eighth concentration using a row gun, that is, from 1 mM to 0.064 μM. • 2) Each gradient of the compounds to be tested were diluted with 1× buffer into a working solution of 2% DMSO, 5 μL/well was added to the corresponding well, corresponding to a concentration gradient of 20 μM to […], and a double-duplication experiment was set up. The working solution was centrifuged at 1000 rpm for 1 minute. • 3) A mixed working solution of KRAS (G12C) (200 nM) and Mab Anti GST-Eu cryptate (1 ng/μL) was prepared with 1× buffer, then the mixed working solution was incubated at 25° C. for 5 minutes, and 2.5 μL/well was added to the corresponding well. • 4) A mixed working solution of SOS1 (80 nM) and Mab Anti 6HIS-XL665 ([…]) was prepared with 1× buffer, 2.5 μL/well was added to the corresponding well; 2.5 μL of Mab Anti 6HIS-XL665 ([…]) diluent was added to the blank well (Blank), at this time the final concentration gradient of the compounds was 10 μM diluted to 0.64 nM, KRAS (G12C) ([…]), MAb Anti GST-Eu cryptate (0.25 ng/μL), SOS1 (20 nM), Mab Anti 6HIS-XL665 (2 g/μL), and the reaction system was placed at 25° C. for 60 minutes. A multi-label analyzer was used for reading HTRF after the reaction was completed. 4. Data Analysis:
Using the equation (Sample−Min)/(Max−Min)×100% to convert the raw data into inhibition rate, and the value of IC50 might be obtained by curve fitting with four parameters (obtained by “Log(inhibitor) vs. response-Variable slope” mode in GraphPad Prism). Table 1 provides the inhibitory activity of the compounds of the present disclosure on KRAS(G12C) and SOS1 binding.

The next series relates to A427 cells. As to the kind of experiment: In vitro anti-proliferation assay of A427 cells (KRAS G12D). In kind it is cell-based. As to conditions: Homo sapiens, A-427, 336 h; A427 cells in agarose gel, 14 days, Almar blue; read-out: IC50, inhibitory activity on the proliferation of A427 cells.
Source text: as §1
EMEM culture medium, fetal bovine serum, penicillin/streptomycin antibiotics were purchased from Wisent, and low melting point agarose was purchased from Sigma. Almar blue reagent was purchased from Invitrogen. A427 cell line was purchased from Nanjing Cobioer Biotechnology Co., Ltd. Envision multi-label analyzer (PerkinElmer).
• 1) A427 cells were planted in a 96-well U-shaped plate, and the low melting point agarose was first prepared into a 2% mother solution. When used, the agarose mother solution was first heated in a microwave oven to completely melt, and then placed in a 42° C. water bath to keep the agarose in a liquid state. The gel was added to a serum-containing medium to prepare a gel concentration of 0.6% as the base gel, and spread into a 96-well U-shaped plate at 50 μL per well. After the base gel was solidified, 2% gel was added to a cell-containing medium to prepare a gel concentration of 0.4% of cell-containing top gel with a cell density of 4×10^4 cells/mL, which was added to a 96-well U-shaped plate spread with base gel at 75 μL per well with a cell density of 3000 cells per well. After the top gel was solidified, the cell plate was incubated overnight in a CO2 incubator. • 2) On the day of adding the compounds, 85 μL of liquid medium was added to the 96-well U-shaped plate in which the cells were spread. The compounds to be tested were diluted 3-fold with a row gun to the ninth concentration, that is, from 6 mM to 0.9 μM, and a double-duplication experiment was set up. 97 μL of culture medium was added to a middle plate, and then 2.5 μL of gradient diluted compound per well was transferred to the middle plate according to the corresponding position. After being thoroughly mixed, 40 μL per well was transferred to the cell plate. The concentration range of the compound transferred to the cell plate was 30 μM to 4.5 nM. […] A multi-label analyzer was used for reading. […]

Series [2] can be described thus: Pharmacokinetic study in mice. In kind it is in vivo. The conditions noted are these: mouse, plasma; for AUC(0-t): read-out: AUC0-24 h. The protocol:
The purpose of this experiment is to evaluate the pharmacokinetic behavior of the compounds after a single intravenous injection or intragastric administration in mice. For intravenous injection, the compound was prepared as a clear solution of 0.2 mg/mL, vehicle: 5% DMSO/95% (10% hydroxypropyl-β-cyclodextrin) aqueous solution; for intragastric administration, the compound was prepared as a suspension of 0.3 mg/mL, vehicle: 5% DMSO/95% (10% hydroxypropyl-β-cyclodextrin) aqueous solution.
The concentrations of compounds in plasma were determined by high performance liquid chromatography-tandem mass spectrometry (LC-MS/MS). Retention time of compounds and internal standard (diclofenac), chromatogram acquisition and integration of chromatogram were processed using the software Analyst (Applied Biosystems), and statistics of the data were processed using the software Watson LIMS (Thermo Fisher Scientific) or Analyst (Applied Biosystems). The concentration of analytes in the sample was expressed in ng/mL, with 3 valid digits retained. All values expressed as percentages (for example, % deviation and % coefficient of variation, etc.) were retained to one decimal point. Each calibration curve contained at least 6 concentration levels. The calibration specimen should be prepared using a stock solution from a different source than the quality control sample. The deviation between the calculated concentration of the calibration specimen and the indicated value exceeds ±15.0% (the lower limit of quantification exceeds ±20.0%) and the specimen should be rejected in the regression analysis. The rejected calibration specimens should be less than 25% and each calibration curve should contain at least 6 calibration specimens that meet the acceptance criteria. If the lower and upper limits of quantification calibration specimens need to be rejected, the upper and lower limits of quantification for the analytical batch will be raised and lowered accordingly.
Plasma concentrations were processed using the non-compartmental model of WinNonlin™ Version 6.3 (Pharsight, Mountain View, CA) pharmacokinetic software, and pharmacokinetic parameters were calculated using the linear-log trapezoidal method. The pharmacokinetic parameters to be calculated include but are not limited to (data permitting) T1/2, Vdss, CL, AUC0-24 h of IV group; Cmax, Tmax, AUC0-24 h, oral bioavailability (F %) of PO group.
The relevant pharmacokinetic parameters of the embodiment of the present disclosure in mice intravenously injected at a dose of 1 mg/Kg and intragastrically administered at a dose of 3 mg/Kg are shown in Table 5 below.

The mark [3] stands for this setting: po, intragastric administration, 3 mg/Kg.

Take `C=CC(Nc1nc(C)nc2cc(=O)n(C3CCOCC3)cc12)c1cc(N)cc(C(F)(F)F)c1` (stereo not shown) [Compound 1]: the IC50 in series [1] was determined as 32 nM.

As to `C=CC(Nc1nc(C)nc2cc(=O)n(C3(C)CCOC3)cc12)c1cc(N)cc(C(F)(F)F)c1` (stereo not shown) [Compound 2], the IC50 in series [1] worked out at 26 nM.

For `C=CC(Nc1nc(C)nc2cc(=O)n(C3(CF)CC3)cc12)c1cc(N)cc(C(F)(F)F)c1` (stereo not shown) [Compound 3], the IC50 in series [1] turned out to be 25 nM.

Take `C=CC(Nc1nc(C)nc2cc(=O)n(C34CCC(O)(CC3)CC4)cc12)c1cc(N)cc(C(F)(F)F)c1` (stereo not shown) [Compound 4]: the IC50 in series [1] is 21 nM.

In the case of `C=C[C@@H](Nc1nc(C)nc2cc(=O)n(C3(C(F)F)CC3)cc12)c1cc(C(F)(F)CO)cs1` [Compound 7], the IC50 in series [1] was 13 nM.

The term clearance denotes the rate of elimination divided by the concentration. The low end stands for inefficient removal, the high end for efficient removal. Usually half-life stands for how long it takes for the measured level to halve. By Cmax is commonly meant the maximum level reached in the sampled fluid or tissue. Broadly, the Tmax is the time at which the peak concentration occurs. In the case of `C=C[C@@H](Nc1nc(C)nc2cc(=O)n(C3(C(F)F)CC3)cc12)c1cccc(C(F)F)c1F` [Compound 8], the IC50 in the series with A427 cells is not above 100 nM. Besides, in series [2] (intravenous injection, 1 mg/Kg), the clearance amounted to 30.5 mL/min/kg, the half-life was 40.2 min and the AUC(0-t) was 1.77 µM·h. In addition, in series [2] (intravenous injection, 1 mg/Kg, read-out: Vdss), the Vd turned out to be 1.84 L/kg. Moreover, the bioavailability in series [2] (oral, intragastric 3 mg/Kg vs intravenous 1 mg/Kg, read-out: F % (oral bioavailability)) was found to be 109%. In addition, in series [2] (setting [3]), the highest level (Cmax) was 1380 nM, the Tmax came to 60 min and the AUC(0-t) came out at 4.11 µM·h.

For the compound `C=C[C@@H](Nc1nc(C)nc2cc(=O)n(C3(C)CCN(C(C)=O)C3)cc12)c1cccc(C(F)F)c1F` (stereo partly shown) [Compound 13], in the series with A427 cells, the IC50 was not above 100 nM.

`C=C[C@@H](Nc1nc(C)nc2cc(=O)n(C3(C(F)F)CCN(C(C)=O)C3)cc12)c1cccc(C(F)F)c1F` (stereo partly shown) [Compound 15]: in the series on A427 cells, the IC50 was not above 100 nM.
